Results reported in US6753310B1, “Neovascular-specific peptides” (Otsuka Pharmaceutical Co., Ltd., priority 1998, dated 2004).

Test system: Meth A sarcoma
Test: Antitumor effect of adriamycin-including peptide-modified liposomes, tail vein administration
Type: in vivo, BALB/c mice
Conditions: FIG. 15; after three tail vein administrations on days 6, 9 and 12
Description: Solid tumor-bearing mice were prepared by subcutaneously administering Meth A sarcoma cells (1×10^6 cells/mouse) into the left flank of five-week-old BALB/c male mice (Japan SLC). The day of implantation was taken as day 1 and, on days 6, 9 and 12, the 0.3 M glucose solution (solvent) as a control, adriamycin (ADR)-including control liposomes (liposomes including the anticancer agent but free of any angiogenesis-specific peptide of the invention), a free ADR solution prepared by dissolving the anticancer agent ADR in a concentration of 15 mg/kg (mouse) in 0.3 M glucose, and the ADR-including, angiogenesis-specific peptide-modified liposomes of the invention as prepared above in (1) were respectively administered into the tail vein. In the test, 5 tumor-bearing mice were used in each group.
The antitumor effect of each agent administered was evaluated by examining, from 5 days after tumor implantation, the tumor volume as an indicator of tumor growth and the mouse body weight change as well as the survival period (days) as an indicator of side effect, in a similar manner as in Example 4 (2).
In the figure, the ordinate denotes the tumor volume and the ascissa denotes the number of days after tumor implantation. […]

## COc1cccc2c1C(=O)c1c(O)c3c(c(O)c1C2=O)C[C@@](O)(C(=O)CO)C[C@@H]3O[C@H]1C[C@H](N)[C@H](O)[C@H](C)O1 [free ADR solution, adriamycin]
  death of mice: all mice died
